Reference: patent publication US20260242350A1, “POLYCYCLIC THYROID HORMONE BETA RECEPTOR AGONIST AND USE THEREOF” (CASCADE PHARMACEUTICALS, INC., priority 2023, published 2026)

What was measured:
[1] = target: T1, THRβ (pGAL4-THRβ-LBD) (Homo sapiens, UniProt P10828); assay: Reporter gene (Dual-Glo luciferase) agonist activity assay in HEK293T cells, THRβ; format: cell-based; conditions: ratio of EC50 THRα/THRβ
T1 construct: expressed in transfected cells; host or cells: HEK293T
T1 sequence (P10828 217-461): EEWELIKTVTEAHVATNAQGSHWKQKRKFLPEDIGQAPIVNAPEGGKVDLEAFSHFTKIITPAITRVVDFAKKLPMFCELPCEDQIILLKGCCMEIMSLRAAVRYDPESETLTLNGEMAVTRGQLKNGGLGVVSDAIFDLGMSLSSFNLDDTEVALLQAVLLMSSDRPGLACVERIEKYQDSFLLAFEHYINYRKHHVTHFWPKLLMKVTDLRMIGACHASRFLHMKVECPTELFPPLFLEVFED
Excerpt: Experimental Example 2: Detection of Agonist Activities of Compounds Against THRα and THRβ Based on Reporter Gene Activity Assay Method
1.1 Construction and Preparation of Plasmids pGAL4-THR-LBD and pG5-Luc
The pGAL4-THRα-LBD and pGAL4-THRβ-LBD plasmids used in the reporter gene assay system were constructed by a conventional molecular cloning method comprising the following main steps: the cDNA sequences of THRα (NM_003250) and THRβ(NM_000461) corresponding to the amino acid sequences of THRα (163-407AA) and THRβ(217-461AA) were inserted into the BamHI and NotI enzyme digestion sites of the pGAL4 vector by the PCR technique respectively to obtain the pGAL4-THRα-LBD and pGAL4-THRβ-LBD plasmids; the pG5-Luc (#E249A) and pRL-TK (#E2241) plasmids were purchased from Promega; the plasmids were transfected into the E. coli DH5a by the CaCl2 method, and after further culture and amplification, the plasmids were purified by Plasmid Extraction Kits (TIANGEN, #D107) to obtain the corresponding plasmid DNAs.
1.2 Co-Transfection of Plasmids into HEK293T Cells and Treatment with Compounds
The HEK293T cells were inoculated into a 96-well plate at a density of 1×10^4/well the day before plasmid transfection. Cell transfection was conducted according to the instructions of the transfection reagent FuGENE® HD (Promega, #E2311). The main steps were as follows: taking one well as an example here, the plasmids pGAL4-THRα-LBD or pGAL4-THRβ-LBD, pG5-Luc, and pRL-TK were added in the proportions of 20 ng, 50 ng, and 5 ng to 10 μL of Opti-MEM™ I medium (Gibco, #11058021) and mixed well; subsequently, 0.25 μL of FuGENE® HD was added, mixed well, and then left at room temperature for 5 min; afterwards, […] was added to the cell wells containing 100 μL of culture medium. After cell co-transfection for 6 h, the compound was diluted in a 3-fold gradient with dimethyl sulfoxide at the highest concentration of 1 μM. The compound was added to the cell culture medium at a total of 10 concentrations for treatment for 24 h. There were a total of two duplicate wells for each concentration. Triiodothyronine (T3) was used as the positive control.
1.3 Dual-Glo Luciferase Assay
After the cells were treated with the compound for 24 h, the cells were assayed according to the instructions of Dual-Glo® Luciferase Assay System (Promega, #E2940). The main steps were as follows: 50 μL of culture medium was aspirated from each well and discarded, and then 50 μL of Dual-Glo® Luciferase reagent was added and oscillated at room temperature for 10 min; 80 μL of lysis reaction solution was measured into a white opaque optiPlate-96-well plate, and the luminescence signal value (Firefly-Luc) of the Firefly luciferase was detected using an MD i3x multi-mode microplate reader; 40 μL of Dual-Glo® Stop & Glo® reagent was then added, and oscillated at room temperature for 10 min; the luminescence signal value (Renilla-Luc) of the Renilla luciferase was then detected using an MD i3x multi-mode microplate reader. The Firefly-Luc/Renilla-Luc ratio was used as the activation activity of the compound against THR, and was normalized against the ratio in the vehicle DMSO group; the dose-response curve was fitted with four parameters using the GraphPad Prism6.0 software, and the EC50 value was calculated.

[2] = target: T2, THRβ LBD (His-GST-dLBT-THRβLBD) (Homo sapiens, UniProt P10828); assay: THR-FRET (time-resolved fluorescence resonance energy transfer) agonist activity assay, THRβ; format: biochemical; conditions: for EC50: 24 h at room temperature; for Selectivity (THRα/THRβ): ratio of EC50 THRα/THRβ
T2 construct: made in house; host or cells: E. coli BL21 (DE3)
T2 sequence (P10828 217-461 limits assumed): T1 sequence (P10828 217-461)
Excerpt: (§1) Experimental Example 1: Detection of Agonist Activities of Compounds Against THRα/β Based on Time-Resolved Fluorescence Resonance Energy Transfer (THR-FRET)
(§2) 1. Construction of THRα/β Overexpression Vectors
(§3) By visiting NCBI, the THRα/β LBD domain sequences were found. The pET21-His-GST-dLBT-THRα LBD and pET21-His-GST-dLBT-THRβLBD overexpression vectors were constructed by the fusion method, and sequenced to confirm the accuracy of the sequences.
(§4) 2. Prokaryotic Expression of Recombinant Proteins in E. coli
(§5) The THRα LBD and THRβLBD overexpression vectors confirmed by sequencing were transfected into E. coli cells BL21 (DE3), and spread on an ampicillin-resistant agar plate. Monoclones were picked out and amplified in an LB medium, and transferred into 1 L LB at a ratio of 1:100 for large-scale culture. When the OD value was at 0.8 to 1.2, 0.5 mM isopropyl-beta-D-thiogalactopyranoside (IPTG) was added, and induced overnight at 18° C. The bacteria were harvested, disrupted, and purified via the GST column and the molecular sieve to obtain two proteins His-GST-dLBT-THRα LBD and His-GST-dLBT-THRβLBD.
(§6) 3. Preparation of Compounds and Formulation of Reaction System
(§7) The proteins were taken out from a refrigerator at −80° C. The protein s with the GST-tagged THRα/p LBD domain and the Eu-labelled GST antibodies were thawed slowly on ice, and an assay buffer containing a final concentration of 5 mM dithiothreitol (DTT) was formulated.
(§8) 3.1 Preparation of Compounds
(§9) The starting concentration of the compound was 10 μM (in DMSO). The compound (100 μM in DMSO) was subjected to 3-fold isogradient dilution with DMSO to obtain a total of 11 isogradient concentrations. Subsequently, the above compounds at the isogradient concentration were further subjected to 50-fold dilution with an assay buffer containing 5 mM DTT.
(§10) 3.2 Formulation of THR-FRET Reaction System
(§11) The final concentrations of all components were calculated based on a system with a final volume of 20 µL per well. To […] of assay buffer containing 5 mM DTT, the GST-tagged THRα/β proteins, the SRC2 ([…]) polypeptide, XL665 (Cisobio, #610SAXLB), and the Eu-labeled GST antibody were added, and the final concentrations were 2 nM, 200 nM, 0.05 nM, and 7.6 nM respectively to formulate 18 μL of reaction mixture of the proteins, polypeptide, and antibody per well.
(§12) 18 μL of reaction mixture and 2 μL of diluted compound were added into an optiplate-384-well plate, and reacted at room temperature for 24 h.
(§13) The plate was read using an MD i3x multi-mode microplate reader with the excitation and emission wavelengths of 340 nm and 665 nm, respectively. The intensity of light at a wavelength of 616 nm generated by europium excited by 340 nm wavelength light from the MD i3x multi-mode microplate reader was used as the background. According to the different activation degrees of different compounds against THRα and THRβ, the intensity of the emission light at a wavelength of 665 nm generated by exciting XL665 with the exciting light at a wavelength of 616 nm was varied. The intensity ratio between these two light wavelengths (665 nm, 616 nm) was used as the activation activity of the compound against THRα or THRβ, and was normalized against the ratio in the vehicle DMSO group. The dose-response curve was fitted with four parameters using the GraphPad Prism 6.0 software, and the EC50 value was calculated.

[3] = target: T3, THRα LBD (His-GST-dLBT-THRα LBD) (Homo sapiens, UniProt P10827); assay: THR-FRET (time-resolved fluorescence resonance energy transfer) agonist activity assay, THRα; format: biochemical; conditions: 24 h at room temperature
T3 construct: made in house; host or cells: E. coli BL21 (DE3)
T3 sequence (P10827 163-407 isoform P10827-2): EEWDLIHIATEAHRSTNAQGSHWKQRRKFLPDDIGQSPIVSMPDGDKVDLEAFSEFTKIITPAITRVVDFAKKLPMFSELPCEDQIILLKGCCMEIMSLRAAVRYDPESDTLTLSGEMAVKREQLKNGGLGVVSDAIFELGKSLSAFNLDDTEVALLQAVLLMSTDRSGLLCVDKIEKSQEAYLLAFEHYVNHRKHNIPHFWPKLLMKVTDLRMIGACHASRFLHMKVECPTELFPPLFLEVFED
Excerpt: as §1, §2, §3, §4, §5, §6, §7, §8, §9, §10, §11, §12, §13

Structure (SMILES)	Selectivity (THRα/THRβ) [1]	EC50 [2] [nM]	Selectivity (THRα/THRβ) [2]	EC50 [3] [nM]
O=c1cnn(-c2cc(Cl)c(Cn3ccc(=O)c4ccccc43)c(Br)c2)c(=O)[nH]1 [Compound 3]	† (5 ≥ THRα/β)	100 to 1000	†† (10 > THRα/β > 1)	100 to 1000
O=c1cnn(-c2cc(Cl)c(Cn3ccc(=O)c4c(Cl)cccc43)c(Cl)c2)c(=O)[nH]1 [Compound 13]	† (5 ≥ THRα/β)	100 to 1000	†† (10 > THRα/β > 1)	1000 to 10000
Cc1cccc2c1c(=O)ccn2Cc1c(Cl)cc(-n2ncc(=O)[nH]c2=O)cc1Cl [Compound 14]	† (5 ≥ THRα/β)	100 to 1000	†† (10 > THRα/β > 1)	100 to 1000
Cc1cccc2c1c(=O)ccn2Cc1c(Cl)cc(-n2ncc(=O)[nH]c2=O)cc1Br [Compound 17]	††† (20 ≥ THRα/β > 10)	< 50	†† (10 > THRα/β > 1)	100 to 1000
Cc1cccc2c1c(=O)ccn2Cc1c(Br)cc(-n2ncc(=O)[nH]c2=O)cc1Br [Compound 18]	†† (10 ≥ THRα/β > 5)	< 50	†† (10 > THRα/β > 1)	50 to 100
O=c1[nH]c(=O)n(-c2cc(Cl)c(Cn3ccc(=O)c4ccccc43)c(Cl)c2)nc1C(F)F [Compound 28]	†††† (THRα/β > 20)	< 50	†† (10 > THRα/β > 1)	100 to 1000
O=c1[nH]c(=O)n(-c2cc(Br)c(Cn3ccc(=O)c4ccccc43)c(Br)c2)nc1C(F)F [Compound 29]	†††† (THRα/β > 20)	< 50	†† (10 > THRα/β > 1)	50 to 100
O=c1[nH]c(=O)n(-c2cc(Cl)c(Cn3ccc(=O)c4ccccc43)c(Br)c2)nc1C(F)F [Compound 30]	†††† (THRα/β > 20)	< 50	†† (10 > THRα/β > 1)	100 to 1000
Nc1nn(-c2cc(Cl)c(Cn3ccc(=O)c4ccccc43)c(Cl)c2)c(=O)[nH]c1=O [Compound 32]	† (5 ≥ THRα/β)	100 to 1000	†† (10 > THRα/β > 1)	1000 to 10000
C=Cc1nn(-c2cc(Cl)c(Cn3ccc(=O)c4ccccc43)c(Cl)c2)c(=O)[nH]c1=O [Compound 35]	† (5 ≥ THRα/β)	100 to 1000	†† (10 > THRα/β > 1)	1000 to 10000
O=c1[nH]c(=O)n(-c2cc(Cl)c(Cn3ccc(=O)c4ccccc43)c(Cl)c2)nc1CF [Compound 37]	†††† (THRα/β > 20)	50 to 100	†† (10 > THRα/β > 1)	100 to 1000
Cc1nn(-c2cc(Cl)c(Cn3ccc(=O)c4ccccc43)c(Cl)c2)c(=O)[nH]c1=O [Compound 41]	† (5 ≥ THRα/β)	100 to 1000	†† (10 > THRα/β > 1)	1000 to 10000
Cc1nn(-c2cc(Br)c(Cn3ccc(=O)c4ccccc43)c(Br)c2)c(=O)[nH]c1=O [Compound 43]	† (5 ≥ THRα/β)	50 to 100	†† (10 > THRα/β > 1)	100 to 1000
Cc1nn(-c2cc(Cl)c(Cn3ccc(=O)c4c(C)cccc43)c(Cl)c2)c(=O)[nH]c1=O [Compound 44]	† (5 ≥ THRα/β)	50 to 100	†† (10 > THRα/β > 1)	100 to 1000
